This note sets out measurements from paper PMC9525908, “α-Crystallin chaperone mimetic drugs inhibit lens γ-crystallin aggregation: Potential role for cataract prevention” (The Journal of Biological Chemistry, 2022).

By inhibition is commonly meant the change of the read-out against control, counted positive when it falls.

The target in assay [1] is T1, R14C mutant of HγD (Homo sapiens, UniProt P07320, R15C).
T1 construct: made in house; host or cells: E. coli BL21(DE3) pLysS
T1 sequence (P07320 1-174 R15C): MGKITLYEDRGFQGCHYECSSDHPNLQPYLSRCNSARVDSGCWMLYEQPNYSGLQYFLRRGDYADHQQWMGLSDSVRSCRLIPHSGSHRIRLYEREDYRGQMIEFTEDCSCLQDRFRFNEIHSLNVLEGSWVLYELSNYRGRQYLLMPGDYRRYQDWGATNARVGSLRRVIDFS
Nature of the assay: End-point turbidity assay (72 °C, 20 min) of R14C mutant. To be noted: 500 μM drug, 5 mM DTT, read-out: Inhibition of aggregation (%) R14C. The assay is classed as biochemical. As for the experimental part:
Aggregation kinetics assays at 600 nm in the presence of varying concentrations (0, 100, 200, 300, 400, and 500 μM) of our selected drugs were also performed on mutants of HγD (W43R, W42Q, R14C, and R58H) and MγS (F9S) at a concentration of 1 mg/ml in 50 mM K3PO4 buffer (pH 7.2) in a total volume of 100 μl. WT-HγD and WT-MγS crystallin served as controls for their respective mutant versions. For W43R mutant, aggregation assay was done at 42 °C for a total of 200 min. Absorbance was monitored every 10 min. For R14C and R58H mutants, end-point turbidity assay was done at 72 °C for 20 min. […] All the experiments were run in duplicates or triplicates.

The target of assay [2] is T2, HγD (Homo sapiens, UniProt P07320).
T2 construct: made in house; host or cells: E. coli BL21(DE3) pLysS, pET3d vector
T2 sequence (P07320 1-174): T1 sequence (P07320 1-174 R15C) with C15R
As to the kind of experiment: Steady-state tryptophan fluorescence quenching, HγD. The assay is classed as binding. As for the experimental part:
Tryptophan fluorescence can be used for studying conformational changes resulting from protein–drug interactions ([44]). Fluorescence quenching of aromatic fluorophores in HγD and MγS by drugs C and G at three different temperatures (25, 30, and 37 °C) was studied in the presence of varying concentrations of drug C and G (0–250 μM). As shown in Figs. S5A and S6A, both HγD and MγS have a strong emission peak at 330 nm when excited at 295 nm. In both cases, quenching occurs with gradual addition of C and G at all three temperatures. Overall, quenching of Trp fluorescence emission is at highest at 25 °C (Figs. S5A and S6A) followed by 30 °C and lowest at 37 °C. […] The slope of plot Fo/F versus [Q] gives Ksv (Figs. S5B and S6B), whereas Kb is obtained from intercept of plot log (Fo/F − 1) versus log[Q] (Figs. S5C and S6C). […] For drug M, Kb values are of the order 10^2 M^−1 only. Fluorescence quenching can be either because of random collision between the molecules (dynamic interaction) or because of actual affinity between a protein pocket and drug (static interaction). Dynamic interactions are weaker and nonspecific in nature, whereas static interactions are stronger and more specific ([47]). For more information on the type of interaction, Kq was calculated and compared with the standard value of 2 × 10^10 M^−1s^−1, which is the maximum scatter collision quenching constant of various quenchers with biopolymers ([48]). […] Furthermore, the differential response of Ksv toward temperature change also clarifies the type of quenching. In static quenching, Ksv decreases with an increase in temperature because of the formation of complex with protein, which undergoes dissociation on increasing temperature.
To gauge the strength of the major forces involved in drug–protein complex formation, change in free energy was calculated using Gibbs–Helmholtz equation (Equation 3).(3) ΔG=-RTlnKb ([50]) where, R is gas constant and its value is […], T is absolute temperature (Kelvin) and Kb is binding constant whose value is already calculated using Equation 2. […] Free energy changes are negative at all three temperatures, being maximal at 25 °C. For C, G, and M interaction with HγD, ΔG values were −6.4, −7.9, and −1.9 kcal/mol (at 25 °C), that is, similar to those obtained by molecular docking as described later. These values also reflect the fact that drug M had the least protective effect on unfolding or aggregation of various γ-crystallins (Figs. 2 and S4).
All the steady-state fluorescence measurements were recorded on Fluoromax Spectrofluorometer (Horiba Scientific). For fluorescence quenching measurements, 10 μM of both HγD and MγS crystallins were titrated with varying concentrations of drugs C, G, and M (0–250 μM) at 25, 30, and 37 °C. These samples were excited at 295 nm, and the fluorescence emission was collected from 310 to 410 nm.

Assay [3] has as its target T3, WT-HγD crystallin (Homo sapiens, UniProt P07320).
T3 construct: made in house; host or cells: E. coli BL21(DE3) pLysS, pET3d vector
T3 sequence (P07320 1-174): T1 sequence (P07320 1-174 R15C) with C15R
Nature of the assay: Dynamic light scattering of thermally stressed WT-HγD. The assay is classed as biochemical. To be noted: for Size (radius) of aggregates: 50 μM WT-HγD, 400 μM drug, 72 °C 20 min, 7261 nm without drugs. The procedure:
Efficacy of our selected drugs in preventing the formation of protein aggregates was measured by DLS. Measurements were performed on a Wyatt DynaPro Nanostar. For DLS temperature scan experiment, pure and filtered protein samples (1 mg/ml in 10 mM sodium phosphate buffer, pH 7.2) with and without drugs (400 μM) were analyzed by DLS over a temperature range of 30 to 90 °C. Multiple scans were run for every data point, and the results represent average of individual scans. DLS spectra were also recorded for the samples at the end point of turbidity assay.

The target of assay [4] is T4, WT-MγS (Mus musculus, UniProt O35486).
T4 construct: made in house; host or cells: E. coli BL21(DE3) pLysS, pET17b vector
T4 sequence (O35486 1-178): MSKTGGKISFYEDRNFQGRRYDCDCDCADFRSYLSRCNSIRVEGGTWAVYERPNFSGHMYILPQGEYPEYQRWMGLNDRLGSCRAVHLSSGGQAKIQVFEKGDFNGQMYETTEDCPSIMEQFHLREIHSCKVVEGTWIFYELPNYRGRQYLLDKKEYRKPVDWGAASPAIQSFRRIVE
Nature of the assay: Thermal unfolding (Tm), WT-MγS. The assay is classed as biochemical. The note with it: 10 μM protein, 100 μM drug; Con 70. As for the experimental part:
Thermal denaturation study was monitored using fluorescence spectroscopy. Protein solutions (10 μM) in the presence and absence of drugs or bis-ANS (100 μM) were heated continuously from 30 to 95 °C, and the fluorescence data were collected every 5 °C after 1 min equilibration at the given temperature. Unfolding data were fit to Greene and Pace’s two-state model ([82]) using GraphPad Prism software (GraphPad Software, Inc).

Where [5] appears, read: WT-HγD, end point of thermal stress 72 °C 20 min.

Changes are numbered by the printed parent chain.

Regarding `Cc1cc(C(C#N)c2ccc(Cl)cc2)c(Cl)cc1NC(=O)c1cc(I)cc(I)c1O` (stereo not shown) [drug C, Closantel], the inhibition at 500 µM in assay [1] was found to be 68%. In assay [2] (25 °C), the KSV amounted to 4.215 M^−1 ×10^3, the Kq was 0.739 M^−1 s^−1 ×10^12 and the ΔG was −6.4 kcalM^−1. Besides, in assay [2] (30 °C), the KSV was found to be 4.197 M^−1 ×10^3, the Kq is on record as 0.736 M^−1 s^−1 ×10^12 and the ΔG is given as −6.2 kcalM^−1. Besides, in assay [2] (37 °C), the KSV turned out to be 4.107 M^−1 ×10^3, the Kq was 0.72 M^−1 s^−1 ×10^12 and the ΔG was −5.9 kcalM^−1. Besides, the ΔG in assay [2] (at 25 °C) was -6.4 kcal/mol. In assay [3], the “Size (radius) of aggregates” value was 30.5 nm. In assay [3] (setting [5]), the “Percent Mass Peak 1” value is reported as 100% and the “Radius (nm) Peak 1” value was 30.5 nm. The “Tm (°C) WT-MGS” value in assay [4] worked out at 72 °C.
With `CC(C)=CCC[C@]1(C)C=Cc2c(O)c3c(c(CC=C(C)C)c2O1)O[C@]12C(=C[C@@H]4C[C@H]1C(C)(C)O[C@@]2(C/C=C(/C)C(=O)O)C4=O)C3=O` [drug G, Gambogic acid], the inhibition at 500 µM in assay [1] worked out at 55%. Moreover, the KSV in assay [2] (25 °C) is listed as 10.252 M^−1 ×10^3; in assay [2] (30 °C), 8.440 M^−1 ×10^3; in assay [2] (37 °C) it was 7.880 M^−1 ×10^3. For the same compound, the Kq in assay [2] (25 °C) is on record as 1.79 M^−1 s^−1 ×10^12; in assay [2] (30 °C) it was 1.47 M^−1 s^−1 ×10^12; in assay [2] (37 °C), 1.38 M^−1 s^−1 ×10^12. Moreover, the ΔG in assay [2] (25 °C) is −7.9 kcalM^−1; in assay [2] (30 °C) it was −7.7 kcalM^−1; in assay [2] (37 °C), −7.2 kcalM^−1; in assay [2] (at 25 °C), -7.9 kcal/mol. Further, in assay [3], the “Size (radius) of aggregates” value was found to be 84.9 nm. For the same compound, in assay [3] (setting [5]), the “Percent Mass Peak 1” value amounted to 100%. In addition, the “Radius (nm) Peak 1” value in assay [3] (setting [5]) is reported as 84.9 nm. Moreover, the “Tm (°C) WT-MGS” value in assay [4] stood at 73 °C.
Consider `O=C(O)CCCCCCCCCCCC[C@@H]1C=CCC1` [drug M, Chaulmoogric acid], for which the inhibition at 500 µM in assay [1] turned out to be 18%. In assay [2] (25 °C), this compound returned a KSV of 0.288 M^−1 ×10^3, a Kq of 0.051 M^−1 s^−1 ×10^12 and a ΔG of −1.9 kcalM^−1. In assay [2] (30 °C), this compound returned a KSV of 0.507 M^−1 ×10^3, a Kq of 0.08 M^−1 s^−1 ×10^12 and a ΔG of −2.5 kcalM^−1. Further, in assay [2] (37 °C), the KSV was 0.680 M^−1 ×10^3 and the ΔG is reported as −2.6 kcalM^−1. For the same compound, the ΔG in assay [2] (at 25 °C) was -1.9 kcal/mol. Besides, the “Size (radius) of aggregates” value in assay [3] was 569 nm. Besides, in assay [3] (setting [5]), the “Percent Mass Peak 1” value came out at 12.7%, the “Percent Mass Peak 2” value turned out to be 87.3%, the “Radius (nm) Peak 1” value was determined as 10.9 nm and the “Radius (nm) Peak 2” value turned out to be 568.5 nm. The “Tm (°C) WT-MGS” value in assay [4] came to 68 °C.
